Assay results: PubChem BioAssay (NCI)
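Method: 48-hour compound exposure of cells in 96-well plates, five concentrations, linear interpolation of endpoints. Here, GI50 denotes the concentration required for 50% inhibition of growth. At the TGI there is no net growth.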

Key:
Assay in all cases: growth of human tumour cells (NCI), 48 h
[1] = tested on: MOLT-4 leukemia
[2] = tested on: K-562 leukemia
[3] = tested on: EKVX NSCLC
[4] = tested on: LOX IMVI melanoma
[5] = tested on: A498 renal
[6] = tested on: OVCAR-4 ovarian
[7] = tested on: UACC-257 melanoma
[8] = tested on: UO-31 renal
[9] = tested on: SK-MEL-28 melanoma
[10] = tested on: DU-145 prostate
[11] = tested on: SN12C renal

Row | Compound | TGI [1] [µM] | TGI [2] [µM] | TGI [3] [µM] | TGI [4] [µM] | TGI [5] [µM] | TGI [6] [µM] | TGI [7] [µM] | TGI [8] [µM] | TGI [9] [µM] | TGI [10] [µM] | TGI [11] [µM] | GI50 [1] [µM] | GI50 [2] [µM] | GI50 [4] [µM] | GI50 [6] [µM] | GI50 [5] [µM] | GI50 [8] [µM]
1 | C[C@@H]1CC[C@@]2(OC1)O[C@H]1C[C@H]3[C@@H]4CC[C@H]5C[C@@H](OC6OC(CO)C(OC7OC(CO)C(O)C(OC8OCC(O)C(O)C8O)C7OC7OC(CO)C(O)C(O)C7O)C(O)C6O)[C@H](O)C[C@]5(C)[C@H]4CC[C@]3(C)[C@H]1[C@@H]2C (some centres not stated) | 31.1 | > 100 | 21 | 7.89 | 29.7 | 4.62 | 39.9 | 17.8 | 31 | 13.9 | – | – | – | – | – | – | –
2 | O=c1cc(-c2ccccc2)[nH]c2nccn12 | > 10 | > 10 | > 10 | > 10 | > 10 | > 10 | – | > 10 | > 10 | > 10 | > 10 | – | – | – | – | – | –
3 | O=C(c1ccccc1)N1C(=S)N(c2ccccn2)C(=Nc2ccccc2)C1=Nc1ccccc1 | > 54.8 | > 60.9 | > 100 | > 48.9 | > 100 | 32.5 | > 74.6 | 27.1 | > 100 | > 100 | > 100 | – | – | – | – | – | –
4 | Cc1n(Cc2ccccc2)nc2sc(N)n[n+]12 | > 100 | > 100 | > 100 | > 100 | > 100 | > 100 | > 100 | > 100 | > 100 | > 100 | > 100 | – | – | – | – | – | –
5 | CSc1nc2c(c(=O)[nH]1)N=C(c1ccccc1)CC(c1ccccc1)N2 (configuration not stated) | 59.6 | 68.4 | > 100 | > 100 | > 100 | 95.2 | > 100 | > 100 | > 100 | > 100 | 56.6 | – | – | – | – | – | –
6 | CN(C)c1ccc(C=C2C(=O)NC(=S)NC2=O)c2ccccc12 | > 100 | > 100 | > 100 | 77 | > 100 | > 100 | > 100 | > 100 | > 100 | > 100 | > 100 | – | – | – | – | – | –
7 | CCOC(=O)c1c(NC(=S)Nc2ccccc2)sc2c1CCOC2 | > 100 | > 100 | > 100 | > 100 | > 100 | > 100 | > 100 | > 100 | > 100 | > 100 | > 100 | – | – | – | – | – | –
8 | CCOC(=O)NN(C(=O)OCC)c1c(C)cc(C)cc1C | > 100 | > 100 | > 100 | > 100 | > 100 | > 100 | > 100 | > 100 | > 100 | > 100 | > 100 | – | – | – | – | – | –
9 | COC(=O)CCC(NC(=O)OC(C)(C)C)C(=O)NC(Cc1ccc(NC(=O)CCCC(C)=O)cc1)C(=O)NC(CCC(=O)OC)C(=O)OC (configuration not stated) | > 100 | > 100 | > 100 | > 100 | > 100 | > 100 | > 100 | > 100 | > 100 | > 100 | > 100 | – | – | – | – | – | –
10 | O=C(c1cc2c(c3ccccc13)NC1(CCCCC1)N=C2C(F)(F)F)C(F)(F)F | 14.5 | 16.8 | 15.7 | 12.1 | 20.8 | 14.9 | 11.3 | 11.8 | 22.6 | 19.6 | 13.2 | – | – | – | – | – | –
11 | NS(=O)(=O)c1ccc(/C=C/c2ccc(O)cc2)cc1 | > 100 | > 100 | 69.8 | > 100 | > 100 | > 100 | > 100 | 36.2 | 78.2 | > 100 | > 100 | 22.6 | 24.9 | 19.1 | 36.9 | – | –
12 | CC(C)N(C(C)C)S(=O)(=O)C[C@]12CC[C@H](CC13OCC(CS(=O)(=O)c1ccccc1)O3)C2(C)C (some centres not stated) | 45.7 | > 100 | > 100 | > 100 | > 100 | > 100 | > 80.3 | > 100 | > 100 | > 100 | > 100 | – | – | – | – | – | –
13 | COc1cc(OC)c2[nH]c3c(O)c(-c4c(C)cc5c([nH]c6c(OC)cc(OC)cc65)c4O)c(C)cc3c2c1 | 21.9 | 20.5 | 12.7 | 14.6 | 14.8 | 21.4 | 19 | 13.3 | 19.5 | 15 | – | 8.59 | 9.7 | – | – | 7.82 | 6.83
14 | CNc1nc(C(N)=O)c(N)s1 | > 100 | > 100 | > 100 | > 100 | > 100 | > 100 | > 100 | > 100 | > 100 | > 100 | > 100 | – | – | – | – | – | –
15 | ON=C(CC(O)(C(F)(F)Cl)C(F)(F)Cl)CC(O)(C(F)(F)Cl)C(F)(F)Cl | > 10 | > 10 | > 10 | > 10 | > 10 | > 10 | > 10 | > 10 | > 10 | > 10 | > 10 | – | – | – | – | – | –
16 | CCOC(=O)c1nc2ccc(C(F)(F)F)cc2nc1Oc1ccc(C(=O)OC)cc1 | > 100 | > 100 | > 100 | > 100 | > 100 | > 100 | > 100 | > 100 | > 100 | > 100 | – | – | – | – | – | – | –
17 | O=C1CC(NCc2ccccc2)c2c(Cl)sc(Cl)c21 (configuration not stated) | 43.2 | > 100 | > 100 | 18.5 | > 100 | > 87.3 | > 63 | 75.7 | 76.7 | > 66.5 | 58 | – | – | – | – | – | –
18 | CC1=C(C)SC(=C2Sc3nc(O)[nH]c(=O)c3S2)S1 | > 100 | > 100 | > 100 | > 100 | > 100 | > 100 | > 100 | > 100 | > 100 | > 100 | > 100 | – | – | – | – | – | –

Row | Compound | TGI [1] [µM] | TGI [2] [µM] | TGI [3] [µM] | TGI [4] [µM] | TGI [5] [µM] | TGI [6] [µM] | TGI [7] [µM] | TGI [8] [µM] | TGI [9] [µM] | TGI [10] [µM] | TGI [11] [µM] | GI50 [1] [µM] | GI50 [2] [µM] | GI50 [4] [µM] | GI50 [6] [µM] | GI50 [5] [µM] | GI50 [8] [µM]
19 | O=CN1CCN(C(=O)c2ccc(Cl)c(Cl)c2)C1=S | 53.8 | > 100 | 31.7 | 25.9 | 29.8 | 33.6 | 31.7 | – | 38.3 | 30.9 | 27.8 | – | – | – | – | – | –
20 | CCOC(=O)c1nnc2c(C#N)c(-c3ccccc3)c(C)n2c1N | > 100 | > 100 | > 100 | > 100 | 79.4 | 43.6 | 92.7 | > 100 | 73.2 | > 100 | > 100 | – | – | – | – | – | –
21 | O=[N+]([O-])c1ccc(NNN=Nc2ccc(-c3nc4ccccc4s3)cc2)c([N+](=O)[O-])c1 | 53.5 | 86.2 | 44.4 | 32.7 | 20.5 | > 100 | 36 | 51.3 | > 100 | > 100 | 50.8 | – | – | – | – | – | –
22 | c1ccc([I+]c2ccccc2)cc1 | > 100 | > 100 | > 100 | > 100 | > 100 | > 100 | > 100 | > 100 | > 100 | > 100 | > 100 | – | – | – | – | – | –
23 | CC(=O)N(C(C)=O)c1cc2c3c(c1)CCCN3CCC2 | > 10 | > 10 | > 10 | > 10 | > 10 | > 10 | > 10 | – | > 10 | > 10 | > 10 | – | – | – | – | – | –
24 | COC(=O)CC1c2ccccc2N2C(=O)Cc3c([nH]c4ccccc34)C12 (configuration not stated) | > 100 | > 100 | > 100 | > 100 | > 100 | > 100 | > 100 | > 100 | > 100 | > 100 | > 100 | – | – | – | – | – | –
25 | CC(=O)OC(C)(C)CCC(=O)[C@](C)(O)[C@H]1[C@H](O)C[C@@]2(C)[C@@H]3CCc4c(cc(OC5OC(CO)C(O)C(O)C5O)c(O)c4C)C3(C)C(=O)C[C@]12C (some centres not stated) | > 100 | > 100 | > 100 | > 100 | > 100 | > 100 | > 100 | > 100 | > 100 | > 100 | > 100 | – | – | – | – | – | –
26 | COc1ccc(/C=C2\C[C@H]3[C@@H]4CCC5=CC(=O)CC[C@]5(C)[C@H]4CC[C@]3(C)C2=O)cc1OC | 44.6 | > 100 | 61.2 | > 100 | > 100 | > 100 | 68.4 | 6.85 | > 100 | > 100 | > 100 | – | – | – | – | – | –
27 | c1ccc2c(c1)OC(N1CCCC1)c1cnc(N3CCOCC3)nc1-2 (configuration not stated) | > 100 | > 100 | 79.4 | > 100 | 39.7 | > 100 | 74.2 | 47.2 | > 100 | > 100 | > 100 | – | – | – | – | – | –
28 | Cc1ccc(C(=O)N/N=C(\N=Nc2ccc(C(=O)O)cc2)c2ccc(N(CCC#N)CCC#N)cc2C)cc1 | > 100 | > 100 | > 100 | > 100 | > 100 | > 100 | > 100 | > 100 | > 100 | > 100 | > 100 | – | – | – | – | – | –
29 | COC(=O)C12OC3CO[Si](C(C)C)(C(C)C)O[Si](C(C)C)(C(C)C)OC3C1Oc1nc(=O)ccn12 (configuration not stated) | 30.8 | 30.6 | 30.7 | 31.6 | 38.8 | 30.8 | 29.1 | 29.9 | 30.4 | 32.5 | 32 | – | – | – | – | – | –
30 | CCCCCCCCCCCCCCCCCCOCC(O)COP(=O)(O)OCC1OC(n2ccc(N)nc2=O)C(O)C1O (configuration not stated) | 20 | > 100 | > 100 | 31.1 | 40.6 | > 100 | > 100 | – | > 100 | > 100 | > 100 | – | – | – | – | – | –
31 | O=c1oc2cc(O)ccc2c(O)c1Cc1c(O)c2ccc(O)cc2oc1=O | > 100 | > 100 | > 100 | > 100 | > 100 | > 100 | > 100 | > 100 | > 100 | > 100 | > 100 | – | – | – | – | – | –
32 | Cc1ccc(Nc2nc3c(=O)n(C)c(=O)n(C)c3nc2Nc2ccc(C)cc2)cc1 | > 100 | > 100 | 30 | 22.6 | 40.2 | 23.9 | 30.5 | 24.4 | 30.8 | > 100 | 30.5 | – | – | – | – | – | –
33 | CCOC(=O)C(Cl)(NC(=O)OCc1ccccc1)C(F)(F)F (configuration not stated) | > 100 | > 100 | > 100 | > 100 | > 100 | > 100 | > 100 | > 100 | > 100 | > 100 | > 100 | – | – | – | – | – | –
34 | COC(=O)/C=C1/OC(c2ccc(OC)cc2)=C(Cl)C1=O | 12.3 | 11.3 | 39.4 | 21.2 | 49.1 | 30.1 | 49.6 | 37.7 | 32.6 | 36.6 | 40.4 | – | – | – | – | – | –
35 | CCO/C=N/C1=C(C#N)SC2=N/C(=C\c3ccccc3)C(=O)N21 | > 100 | > 80.4 | > 100 | > 100 | > 100 | > 100 | > 100 | > 100 | > 100 | > 100 | > 100 | – | – | – | – | – | –
36 | Fc1ccc(C(OCCN2CC3CCC(C2)N3CCCc2ccccc2)c2ccc(F)cc2)cc1 | 9.01 | 4.99 | 16.4 | 13 | 17.7 | 16.4 | 11.9 | 19.4 | 22.2 | 22.6 | 13.6 | – | – | – | – | – | –
